These results are taken from patent US11207312B2, “Metallo-beta-lactamase inhibitors and methods of use thereof” (priority 2017, dated 2021).

For orientation: IC50 means the concentration that inhibits the measured activity by half.

In data set [1] the target is VIM-2 (Escherichia coli, UniProt Q5U7L7). The data set can be described thus: biochemical. To be noted: CCF2-FA fluorescence assay; read-out: VIM2 IC50.
Data set [2] has as its target IMP-1 (Serratia marcescens, UniProt P52699). In words: biochemical. Conditions: CCF2-FA fluorescence assay, 2 hours at 25° C.; read-out: IMP1 IC50. Put shortly: (§1)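 Enzyme (NDM-1 1 pM, IMP-1 2 pM, VIM-1 30 pM final) and 1.25 μM CCF2-FA incubated with inhibitor (20 to 0.00063 μM) for 2 h at 25° C in 100 mM KH2PO4 pH 7, 0.005% Tween-20, 10 μM ZnSO4. Fluorescence read at ex 405/em 460 nm; IC50 by 4-parameter fit.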

Data set [3] deals with VIM-1 (Pseudomonas aeruginosa (strain ATCC 15692 / DSM 22644 / CIP 104116 / JCM 14847 / LMG 12228 / 1C / PRS 101 / PAO1), UniProt A0A0F7KYQ8). The data set can be described thus: biochemical. To be noted: CCF2-FA fluorescence assay, 2 hours at 25° C.; read-out: VIM1 IC50. In outline: as §1
The test system of data set [4] is Klebsiella pneumoniae expressing VIM-1 (IHMA599644). The format is cell-based. To be noted: with imipenem 1 μg/ml; 95% inhibition of bacterial growth. In outline: (§2)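 Synergy with imipenem at a fixed 1 μg/ml was scored by absorbance following 22–24 h incubation at 35 °C; the potentiating concentration (MITC95) was the lowest giving 95% growth inhibition.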
Data set [5] concerns Escherichia coli expressing NDM-1 (CLB30016). Type of data set: cell-based. To be noted: with imipenem 1 μg/ml; 95% inhibition of bacterial growth. Put shortly:
as §2

For data set [6], the system named is Serratia marcescens expressing IMP-1 (CL5741). The format is cell-based. To be noted: with imipenem 1 μg/ml; 95% inhibition of bacterial growth. Put shortly: as §2
Data set [7] has as its target NDM-1 (Klebsiella pneumoniae, UniProt C7C422). The data set can be described thus: biochemical. Type of data set: biochemical. Conditions: CCF2-FA fluorescence assay, 2 hours at 25° C. In outline: as §1
Data set [8] concerns P. aeruginosa MB9799 (efflux-, IMP-1 plasmid). Type of data set: cell-based, Pseudomonas aeruginosa. To be noted: efflux − (MB9799) strain; imipenem at 2 μg/mL; in the presence of a class A, C, D serine β-lactamase inhibitor closely related to relebactam. Put shortly:
(§3)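 Isogenic P. aeruginosa PAO1 strains (efflux+ and multiple-efflux-pump-disrupted) carrying plasmid IMP-1, with inducible AmpC, tested by broth microdilution. Imipenem and/or ceftazidime fixed, usually at CLSI breakpoint, plus fixed class A/C β-lactamase inhibitor; titrated MBL inhibitor concentration restoring susceptibility recorded and compared between strains as efflux fold difference.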

Data set [9] deals with P. aeruginosa MB9798 (efflux+, IMP-1 plasmid). To be noted: for MB9798 MITC95 P. aeruginosa uM Efflux WT: efflux + (MB9798) strain, imipenem at 2 μg/mL, in the presence of a class A, C, D serine β-lactamase inhibitor closely related to relebactam; for Efflux ratio: fold difference between efflux+ (MB9798) and efflux− (MB9799) strains. In outline: as §3

Sequence of NDM-1 (C7C422 whole entry, looked up, species assumed): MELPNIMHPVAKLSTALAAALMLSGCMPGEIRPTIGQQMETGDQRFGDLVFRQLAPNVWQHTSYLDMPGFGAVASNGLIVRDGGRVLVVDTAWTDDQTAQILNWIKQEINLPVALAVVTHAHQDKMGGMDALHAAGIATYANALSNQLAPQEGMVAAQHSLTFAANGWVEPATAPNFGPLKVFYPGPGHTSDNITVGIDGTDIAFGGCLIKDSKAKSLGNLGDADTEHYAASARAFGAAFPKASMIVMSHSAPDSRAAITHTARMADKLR
Sequence of IMP-1 (P52699 whole entry, looked up, species assumed): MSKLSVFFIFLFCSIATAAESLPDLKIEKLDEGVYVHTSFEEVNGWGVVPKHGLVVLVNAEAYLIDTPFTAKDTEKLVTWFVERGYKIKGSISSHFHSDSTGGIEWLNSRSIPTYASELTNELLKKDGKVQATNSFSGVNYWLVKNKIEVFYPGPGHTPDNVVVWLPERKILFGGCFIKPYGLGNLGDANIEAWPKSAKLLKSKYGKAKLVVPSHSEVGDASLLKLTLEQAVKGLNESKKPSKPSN

With `NS(=O)(=O)c1c(S(=O)(=O)N[C@@H]2CCNC2)ccc(N2CCC(O)CC2=O)c1-c1nn[nH]n1` (stereo partly drawn) [Example 159, 4-(4-hydroxy-2-oxopiperidin-1-yl)-N1-((R)-pyrrolidin-3-yl)-3-(2H-tetrazol-5-yl)benzene-1,2-disulfonamide], the concentration for half-maximal inhibition (IC50) in data set [1] came out at 2.62 nM; in [2] it was 15.9 nM; in data set [3], 0.38 nM; in data set [7], 0.61 nM. For the same compound, in data set [4], the “IHMA599644 K. pneumoniae MITC95 VIM” value was determined as 6.25 µM. Moreover, the “CLB30016 E. coli MITC95 NDM” value in [5] was 1.56 µM. Moreover, the “CL5741 S. marcescens MITC95 IMP” value in [6] turned out to be 0.78 µM. Also, the “MB9799 MITC95 P. aeruginosa uM Efflux Mutant” value in data set [8] was 1.56 µM. Moreover, the “MB9798 MITC95 P. aeruginosa uM Efflux WT” value in data set [9] turned out to be 6.25 µM. In addition, the Efflux ratio in data set [9] was found to be 4.00.

With `NC1CCN(c2ccc(S(=O)(=O)N[C@@H]3CCNC3)c(S(N)(=O)=O)c2-c2nn[nH]n2)C(=O)C1` (stereo partly drawn) [Example 158, 4-(4-amino-2-oxopiperidin-1-yl)-N1-((R)-pyrrolidin-3-yl)-3-(2H-tetrazol-5-yl)benzene-1,2-disulfonamide], the IC50 in data set [1] was 22.8 nM; in data set [2], 88.4 nM; in data set [3] it was 1.22 nM; in data set [7], 7.19 nM. For the same compound, the “IHMA599644 K. pneumoniae MITC95 VIM” value in [4] came out at 0.78 µM. Also, the “CLB30016 E. coli MITC95 NDM” value in data set [5] was 0.10 µM. Moreover, the “CL5741 S. marcescens MITC95 IMP” value in data set [6] came to 1.56 µM. The “MB9799 MITC95 P. aeruginosa uM Efflux Mutant” value in data set [8] stood at 3.13 µM. Further, in data set [9], the “MB9798 MITC95 P. aeruginosa uM Efflux WT” value amounted to 6.25 µM. The Efflux ratio in [9] came to 2.00.

Regarding `CC(N)C1CCN(c2ccc(S(=O)(=O)NC[C@H](O)CN)c(S(N)(=O)=O)c2-c2nnn[nH]2)CC1` (stereo partly drawn) [Example 50, N1-((R)-3-amino-2-hydroxypropyl)-4-(4-(1-aminoethyl)piper-idin-1-yl)-3-(1H-tetrazol-5-yl)benzene-1,2-disulfonamide], the IC50 was determined as 4.12 nM in [1], 2.11 nM in [2], 0.15 nM in data set [3] and 4.14 nM in [7]. Moreover, the “IHMA599644 K. pneumoniae MITC95 VIM” value in data set [4] was 0.78 µM. The “CLB30016 E. coli MITC95 NDM” value in data set [5] was determined as 0.39 µM. Moreover, in data set [6], the “CL5741 S. marcescens MITC95 IMP” value was 0.78 µM. In addition, the “MB9799 MITC95 P. aeruginosa uM Efflux Mutant” value in [8] is 0.39 µM. In [9], the “MB9798 MITC95 P. aeruginosa uM Efflux WT” value was 0.78 µM. Moreover, the Efflux ratio in [9] is on record as 2.00.

Regarding `COC1(CN(C)C)CN(c2ccc(S(=O)(=O)N[C@@H]3CCNC3)c(S(N)(=O)=O)c2-c2nnn[nH]2)C1` [Example 116, 4-{3-[(dimethylamino)methyl]-3-methoxyazetidin-1-yl}-N1-[(3R)-pyrrolidin-3-yl]-3-(1H-tetrazol-5-yl)benzene-1,2-disulfonamide], the IC50 in [1] worked out at 63.9 nM; in data set [2] it was 4.62 nM; in [3] it was 6.97 nM; in [7] it was 29.3 nM. For the same compound, in [4], the “IHMA599644 K. pneumoniae MITC95 VIM” value was 3.13 µM. Further, the “CLB30016 E. coli MITC95 NDM” value in data set [5] is 1.56 µM. Moreover, in [6], the “CL5741 S. marcescens MITC95 IMP” value was found to be 1.56 µM. Moreover, in data set [8], the “MB9799 MITC95 P. aeruginosa uM Efflux Mutant” value came to 1.56 µM. For the same compound, in data set [9], the “MB9798 MITC95 P. aeruginosa uM Efflux WT” value was 3.13 µM. For the same compound, the Efflux ratio in data set [9] is 2.00.

For `NCC1CCN(c2ccc(S(=O)(=O)NC[C@@H](O)CN)c(S(N)(=O)=O)c2-c2nnn[nH]2)CC1` [Example 37, (S)-N1-(3-amino-2-hydroxypropyl)-4-(4-(aminomethyl)piperidin-1-yl)-3-(1H-tetrazol-5-yl)benzene-1,2-disulfonamide], the IC50 stood at 2.07 nM in [1], 3.04 nM in data set [2], 0.11 nM in data set [3] and 1.29 nM in data set [7]. The “IHMA599644 K. pneumoniae MITC95 VIM” value in data set [4] worked out at 0.78 µM. Further, the “CLB30016 E. coli MITC95 NDM” value in data set [5] came out at 0.39 µM. In addition, the “CL5741 S. marcescens MITC95 IMP” value in data set [6] came out at 0.78 µM. In addition, the “MB9799 MITC95 P. aeruginosa uM Efflux Mutant” value in data set [8] came out at 0.78 µM. Moreover, the “MB9798 MITC95 P. aeruginosa uM Efflux WT” value in data set [9] stood at 0.78 µM. Moreover, the Efflux ratio in [9] is given as 1.00.

In the case of `NCCC1CCN(c2ccc(S(=O)(=O)N[C@@H]3CCNC3)c(S(N)(=O)=O)c2-c2nn[nH]n2)CC1` [Example 16, (R)-4-(4-(2-aminoethyl)piperidin-1-yl)-N^1-(pyrrolidin-3-yl)-3-(2H-tetrazol-5-yl)benzene-1,2-disulfonamide], the IC50 amounted to 1.61 nM in data set [1], 1.85 nM in data set [2], 0.08 nM in data set [3] and 0.72 nM in data set [7]. In addition, the “IHMA599644 K. pneumoniae MITC95 VIM” value in [4] came out at 1.56 µM. Also, the “CLB30016 E. coli MITC95 NDM” value in data set [5] came out at 1.17 µM. In addition, the “CL5741 S. marcescens MITC95 IMP” value in data set [6] was found to be 1.56 µM. The “MB9799 MITC95 P. aeruginosa uM Efflux Mutant” value in data set [8] is 0.78 µM. The “MB9798 MITC95 P. aeruginosa uM Efflux WT” value in data set [9] is 0.78 µM. In addition, in data set [9], the Efflux ratio is recorded as 1.00.

On to `NC[C@@H](O)CNS(=O)(=O)c1ccc(N2C[C@H]3CNC[C@H]3C2)c(-c2nn[nH]n2)c1S(N)(=O)=O` [Example 161, N1-((R)-3-amino-2-hydroxypropyl)-4-((3aR,6aS)-hexahydropyrrolo[3,4-c]pyrrol-2(1H)-yl)-3-(2H-tetrazol-5-yl)benzene-1,2-disulfonamide], for which the IC50 in [1] was 14.9 nM; in [2], 45.4 nM; in [3], 0.89 nM; in data set [7], 12.2 nM. For the same compound, the “IHMA599644 K. pneumoniae MITC95 VIM” value in data set [4] is 1.56 µM. The “CLB30016 E. coli MITC95 NDM” value in data set [5] amounted to 1.56 µM. The “CL5741 S. marcescens MITC95 IMP” value in data set [6] is 3.13 µM. In addition, the “MB9799 MITC95 P. aeruginosa uM Efflux Mutant” value in data set [8] was 6.25 µM. For the same compound, in [9], the “MB9798 MITC95 P. aeruginosa uM Efflux WT” value turned out to be 12.50 µM. In data set [9], the Efflux ratio stood at 2.00.

For `NS(=O)(=O)c1c(S(=O)(=O)N[C@@H]2CCNC2)ccc(N2CCC(CCF)CC2)c1-c1nnn[nH]1` [Example 87, 4-[4-(2-fluoroethyl)piperidin-1-yl]-N1-[(3R)-pyrrolidin-3-yl]-3-(1H-tetrazol-5-yl)benzene-1,2-disulfonamide], the IC50 in [1] came out at 0.49 nM; in data set [2], 0.24 nM; in [3] it was 0.12 nM; in data set [7] it was 0.16 nM. Also, the “IHMA599644 K. pneumoniae MITC95 VIM” value in data set [4] is 3.13 µM. Moreover, in data set [5], the “CLB30016 E. coli MITC95 NDM” value was determined as 1.56 µM. The “CL5741 S. marcescens MITC95 IMP” value in data set [6] was found to be 3.13 µM. For the same compound, the “MB9799 MITC95 P. aeruginosa uM Efflux Mutant” value in data set [8] worked out at 1.56 µM. For the same compound, the “MB9798 MITC95 P. aeruginosa uM Efflux WT” value in data set [9] was determined as 12.50 µM. Also, the Efflux ratio in data set [9] came to 8.00.

On to `NS(=O)(=O)c1c(S(=O)(=O)N[C@@H]2CCNC2)ccc(N2CCCCC(O)C2)c1-c1nnn[nH]1` (stereo partly drawn) [Example 104, 4-(3-hydroxyazepan-1-yl)-N1-[(3R)-pyrrolidin-3-yl]-3-(1H-tetrazol-5-yl)benzene-1,2-disulfonamide], for which the IC50 stood at 0.65 nM in [1], 2.06 nM in [2], 0.21 nM in data set [3] and 0.68 nM in data set [7]. Also, the “IHMA599644 K. pneumoniae MITC95 VIM” value in [4] was found to be 3.13 µM. Besides, in data set [5], the “CLB30016 E. coli MITC95 NDM” value was found to be 3.13 µM. Also, the “CL5741 S. marcescens MITC95 IMP” value in data set [6] is 3.13 µM. Further, the “MB9799 MITC95 P. aeruginosa uM Efflux Mutant” value in data set [8] was 1.56 µM. The “MB9798 MITC95 P. aeruginosa uM Efflux WT” value in data set [9] was determined as 3.13 µM. Moreover, the Efflux ratio in data set [9] is 2.00.

As for `NC(=O)C1CCN(c2ccc(S(=O)(=O)N[C@@H]3CCNC3)c(S(N)(=O)=O)c2-c2nnn[nH]2)C1` (stereo partly drawn) [Example 92, 1-{4-[(3R)-pyrrolidin-3-ylsulfamoyl]-3-sulfamoyl-2-(1H-tetrazol-5-yl)phenyl}pyrrolidine-3-carboxamide], the IC50 in data set [1] was 0.74 nM; in data set [2], 0.31 nM; in [3], 0.3 nM; in [7], 0.38 nM. In addition, the “IHMA599644 K. pneumoniae MITC95 VIM” value in data set [4] came out at 3.13 µM. Further, in data set [5], the “CLB30016 E. coli MITC95 NDM” value was determined as 0.78 µM. In data set [6], the “CL5741 S. marcescens MITC95 IMP” value is 1.56 µM. In data set [8], the “MB9799 MITC95 P. aeruginosa uM Efflux Mutant” value is 1.56 µM. Also, the “MB9798 MITC95 P. aeruginosa uM Efflux WT” value in data set [9] was 1.56 µM. The Efflux ratio in data set [9] is given as 1.00.
